Measured values as given in US8647827B2, “Fluorescent substrates for neurotransmitter transporters” (Vanderbilt University, priority 2006, dated 2014).
Like-named read-outs stand apart in the source and are kept apart here.

What was measured:
[1] = molecular target: T1, SERT (Homo sapiens, UniProt P31645); conditions: cited from earlier work
Target sequence in this assay (P31645 whole entry, species assumed): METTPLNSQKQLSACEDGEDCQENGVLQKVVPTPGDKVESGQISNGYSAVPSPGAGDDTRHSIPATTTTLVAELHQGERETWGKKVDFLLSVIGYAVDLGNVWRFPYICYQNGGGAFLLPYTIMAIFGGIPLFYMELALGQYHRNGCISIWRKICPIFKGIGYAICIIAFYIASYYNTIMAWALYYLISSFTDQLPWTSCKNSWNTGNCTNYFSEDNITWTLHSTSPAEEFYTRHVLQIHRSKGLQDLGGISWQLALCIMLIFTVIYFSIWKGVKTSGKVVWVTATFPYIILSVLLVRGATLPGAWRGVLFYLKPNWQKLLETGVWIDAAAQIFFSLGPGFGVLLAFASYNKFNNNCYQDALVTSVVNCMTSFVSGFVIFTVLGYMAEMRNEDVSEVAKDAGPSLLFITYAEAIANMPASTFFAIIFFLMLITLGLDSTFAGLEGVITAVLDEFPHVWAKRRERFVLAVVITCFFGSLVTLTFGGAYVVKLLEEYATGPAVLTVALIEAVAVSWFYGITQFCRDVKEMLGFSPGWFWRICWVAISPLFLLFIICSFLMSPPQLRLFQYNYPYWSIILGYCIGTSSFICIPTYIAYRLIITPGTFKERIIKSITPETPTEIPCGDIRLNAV

[2] = molecular target: DAT (Homo sapiens, UniProt Q01959); conditions: previously reported, U.S. Publication No. 20040115703; cited from earlier work
[3] = molecular target: T2, NET (Homo sapiens, UniProt P23975); conditions: previously reported, U.S. Publication No. 20040115703; cited from earlier work
[4] = molecular target: T3, DAT (Rattus norvegicus, UniProt P23977); assay: IDT307 accumulation/transport by fluorescence, DAT; type: cell-based
T3 construct: expressed in transfected cells; host or cells: LLC cells
Protocol: (§1) FIG. 7—Imaging IDT307 with Zeiss LSM-510 Confocal Meta Detector. LLC Cells expressing rDAT were exposed to 10 μM IDT307 for 1 hr before rinsing with KRH buffer and imaging with a Zeiss LSM-510 confocal microscope using the meta detector. Quantification of fluorescence at each wavelength for selected regions of interest was performed using ImageJ analysis software.
(§2) 4-(4-(dimethylamino)phenyl)-1-methylpyridinium iodide, referred to herein as IDT307, is a dye with optical activity that has been discussed by a number of different researchers (Bulgarevich et al., 1992; Kuo, 1978; Coe et al., 2003; Zauhar et al., 1995; Lyapustina et al., 1993). […] IDT307 fluorescent microscopy permits localization of transport activity in single cells and neuronal processes. The IDT307 fluorescent microscopy methods of the invention also permits analysis of many cells, while retaining information about single cells. The IDT307 fluorescence assays of the invention provide detailed mechanistic information about transport. For example, temporal and spatial resolution of transport, transport kinetics, affinity for substrate, turnover rates, surface expression, and binding constants may be measured. Furthermore, features such as voltage dependence of neurotransmitter accumulation can be assessed under voltage clamp using IDT307 fluorescent microscopy.

[5] = molecular target: T1, SERT; assay: [3H]5-HT uptake inhibition in LLC cells stably expressing hSERT; type: cell-based; set-up: expressed in transfected cells; conditions: [3H]5-HT 30 nM, 5 min at 37° C.
Protocol: FIG. 2—[^3H]5-HT uptake inhibition by IDT307 of SERT. […] LLC cells stably expressing hSERT were incubated with [^3H]5-HT (30 nM) in the presence of increasing concentrations of IDT307 (10^−12 to 10^−3) for 5 min at 37° C. Specific uptake was defined as total uptake minus uptake in the presence of the inhibitor paroxetine 1 μM.
Target sequence in this assay (P31645 whole entry): as the sequence (P31645 whole entry, species assumed) above

[6] = molecular target: T1, SERT; assay: IDT307 accumulation/transport by fluorescence, SERT; type: cell-based; set-up: expressed in transfected cells
Protocol: FIG. 3—IDT307 accumulation using a FlexStation™ fluorimeter. IDT307 accumulation using the FlexStation fluorimeter (excitation 440 nm/emission filter 595 nm). LLC non-transfected and hSERT expressing (control) cells were cultured in separate wells of a 96-well plate until confluent. The accumulation of IDT307 (10 μM) in these wells was then monitored in the presence and absence of paroxetine (1 μM) using the FlexStation.
FIGS. 5A-C—Kinetics of IDT307 accumulation in hSERT using the FlexStation™ fluorimeter. Kinetics of IDT307 accumulation in hSERT using the FlexStation fluorimeter. hSERT expressing cells were cultured in wells of a 96-well plate until confluent. […] SERT specific accumulation for each concentration of IDT307 was then calculated from specific uptake values (total uptake—inhibitor treated uptake).
4-(4-(dimethylamino)phenyl)-1-methylpyridinium iodide, referred to herein as IDT307, is a dye with optical activity that has been discussed by a number of different researchers (Bulgarevich et al., 1992; Kuo, 1978; Coe et al., 2003; Zauhar et al., 1995; Lyapustina et al., 1993). […] The IDT307 fluorescence assays of the invention provide detailed mechanistic information about transport. For example, temporal and spatial resolution of transport, transport kinetics, affinity for substrate, turnover rates, surface expression, and binding constants may be measured. […]
Target sequence in this assay (P31645 whole entry): as the sequence (P31645 whole entry, species assumed) above

[7] = Fluorescence spectra of intracellular IDT307; type: physicochemical
Protocol: as §1
FIG. 8—Fluorescence Spectra of Intracellular IDT307. IDT307 maximum absorption=420 nm, maximum emission=510 nm.

[8] = molecular target: T2, NET; assay: IDT307 accumulation/transport by time-resolved fluorescence microscopy in HEK cells expressing hNET; type: cell-based; set-up: expressed in transfected cells; host or cells: HEK cells
Description: as §2
Fluorescent microscopy is used to measure transport using IDT307 which is a fluorescent substrate for several neurotransmitter transporters. Cells that either endogenously or exogenously express a […] are isolated and plated on glass bottom Petri-dishes or multi-well plates that may typically be coated with poly-L-lysine or any other cell adhesive agent. Cells are typically cultured for three or more days. […]

T2 sequence (P23975 whole entry): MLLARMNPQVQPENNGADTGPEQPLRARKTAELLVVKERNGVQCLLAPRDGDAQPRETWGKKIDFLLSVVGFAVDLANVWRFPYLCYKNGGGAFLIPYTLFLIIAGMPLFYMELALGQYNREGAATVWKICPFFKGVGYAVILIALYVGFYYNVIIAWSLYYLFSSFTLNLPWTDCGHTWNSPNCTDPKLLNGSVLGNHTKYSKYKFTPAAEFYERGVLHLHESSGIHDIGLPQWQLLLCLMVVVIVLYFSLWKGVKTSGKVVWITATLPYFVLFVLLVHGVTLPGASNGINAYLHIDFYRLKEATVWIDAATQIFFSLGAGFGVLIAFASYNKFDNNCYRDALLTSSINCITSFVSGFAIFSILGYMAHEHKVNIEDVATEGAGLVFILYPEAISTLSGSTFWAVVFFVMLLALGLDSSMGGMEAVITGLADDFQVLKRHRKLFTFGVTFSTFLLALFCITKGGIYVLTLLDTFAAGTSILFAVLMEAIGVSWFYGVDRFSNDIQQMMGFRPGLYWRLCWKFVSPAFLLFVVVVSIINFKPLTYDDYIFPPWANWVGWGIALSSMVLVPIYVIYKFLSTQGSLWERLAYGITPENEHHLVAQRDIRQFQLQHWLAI
T3 sequence (P23977 whole entry): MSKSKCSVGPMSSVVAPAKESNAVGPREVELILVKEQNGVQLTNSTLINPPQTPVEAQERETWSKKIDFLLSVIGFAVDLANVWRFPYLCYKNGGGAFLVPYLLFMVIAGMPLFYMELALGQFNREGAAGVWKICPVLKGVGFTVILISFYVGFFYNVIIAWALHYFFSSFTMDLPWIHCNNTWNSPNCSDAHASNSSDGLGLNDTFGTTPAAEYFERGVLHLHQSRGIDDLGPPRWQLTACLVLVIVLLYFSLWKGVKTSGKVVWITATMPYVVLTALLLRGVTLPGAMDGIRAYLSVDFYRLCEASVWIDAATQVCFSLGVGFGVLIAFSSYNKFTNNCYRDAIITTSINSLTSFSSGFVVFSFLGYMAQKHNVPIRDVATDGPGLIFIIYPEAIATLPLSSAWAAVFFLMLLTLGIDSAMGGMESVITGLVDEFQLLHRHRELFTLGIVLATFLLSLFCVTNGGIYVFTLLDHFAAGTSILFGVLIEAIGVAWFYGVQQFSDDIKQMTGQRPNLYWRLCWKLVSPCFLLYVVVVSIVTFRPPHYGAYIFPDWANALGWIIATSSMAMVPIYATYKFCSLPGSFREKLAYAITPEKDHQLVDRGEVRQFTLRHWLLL
DAT (Homo sapiens, UniProt Q01959), sequence (Q01959 whole entry, species assumed): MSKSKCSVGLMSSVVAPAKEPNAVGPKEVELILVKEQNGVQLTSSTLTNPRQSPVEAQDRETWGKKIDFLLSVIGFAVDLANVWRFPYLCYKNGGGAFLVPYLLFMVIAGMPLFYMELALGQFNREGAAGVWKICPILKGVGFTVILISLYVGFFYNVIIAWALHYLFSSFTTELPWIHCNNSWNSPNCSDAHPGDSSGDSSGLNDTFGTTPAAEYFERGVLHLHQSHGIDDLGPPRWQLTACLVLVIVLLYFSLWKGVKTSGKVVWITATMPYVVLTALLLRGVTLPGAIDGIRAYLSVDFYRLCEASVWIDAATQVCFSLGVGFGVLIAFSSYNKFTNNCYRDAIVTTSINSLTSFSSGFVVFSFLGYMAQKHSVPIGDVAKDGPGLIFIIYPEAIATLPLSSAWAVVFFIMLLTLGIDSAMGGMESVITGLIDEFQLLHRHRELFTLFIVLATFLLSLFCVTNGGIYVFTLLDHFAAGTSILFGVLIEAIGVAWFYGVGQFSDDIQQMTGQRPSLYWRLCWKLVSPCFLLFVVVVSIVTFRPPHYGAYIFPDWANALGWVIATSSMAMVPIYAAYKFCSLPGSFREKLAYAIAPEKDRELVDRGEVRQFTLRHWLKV

Row | SMILES | effectiveness as a substrate for the serotonin transporter [1] | transport by SERT ([1]; previously reported, U.S. Publication No. 20040115703) | transport by DAT [2] | transport by NET [3] | potency of IDT307 accumulation for DAT [4] | transport by DAT [4] | [3H]5-HT uptake inhibition [5] | potency of IDT307 accumulation for SERT [6] | transport by SERT [6] | maximum absorption [7] [nm] | maximum emission [7] [nm] | potency of IDT307 accumulation for hNET [8] | transport by NET [8]
1 | CN(C)c1ccc(C=Cc2cc[n+](C)cc2)cc1 [ASP^+, 4-(4-dimethylaminostyrl)-N-methylpyridinium] | only minimally effective as a substrate | transported | transported | transported | – | – | – | – | – | – | – | – | –
2 | CN(C)c1ccc(-c2cc[n+](C)cc2)cc1.[I-] [IDT307, 4-(4-(dimethylamino)phenyl)-1-methylpyridinium iodide] | – | – | – | – | sub-mM potency | transported | competes for [^3H]5-HT uptake | sub-mM potency | transported | 420 | 510 | sub-mM potency | transported
